Values of other authors in patent US8637688B2, “Topical dosage form comprising tri-substituted glycerol compounds” (priority 2006, dated 2014).

Key:
[1] = system: cutaneous metastases from breast cancer; settings: 6% solution, topical, average dose rate 0.3 mg/cm^2 skin area
[2] = 6% solution, topical

CCCCCCCCCCCCCCCCOP(=O)([O-])OCC[N+](C)(C)C [miltefosine, hexadecylphosphocholine]
patients treated who showed a beneficial response to the medicament [1]: about one third
skin irritations (redness, itching, cauterization or the like) shortly upon administration [2]: significant skin irritations
